Test results taken from PubChem BioAssay (NCI).
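The compound was tested at five concentrations on cells cultured in 96-well plates, with a 48-hour exposure period. GI50: concentration for 50% inhibition of growth. TGI marks complete inhibition of growth.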

How the values were obtained:
Assay in all cases: NCI tumour cell line growth inhibition, 48 h
HL-60(TB) leukemia = tested on: HL-60(TB) leukemia
MDA-MB-435 = tested on: MDA-MB-435
SN12C renal = tested on: SN12C renal
UACC-257 melanoma = tested on: UACC-257 melanoma
K-562 leukemia = tested on: K-562 leukemia
MCF7 breast = tested on: MCF7 breast
SF-268 CNS = tested on: SF-268 CNS
SK-MEL-28 melanoma = tested on: SK-MEL-28 melanoma
A498 renal = tested on: A498 renal
MALME-3M melanoma = tested on: MALME-3M melanoma
KM12 colon = tested on: KM12 colon
OVCAR-8 ovarian = tested on: OVCAR-8 ovarian
BT-549 breast = tested on: BT-549 breast
IGROV1 ovarian = tested on: IGROV1 ovarian
OVCAR-5 ovarian = tested on: OVCAR-5 ovarian
ACHN renal = tested on: ACHN renal
HOP-62 NSCLC = tested on: HOP-62 NSCLC
UACC-62 melanoma = tested on: UACC-62 melanoma
NCI-H522 lung = tested on: NCI-H522 lung
A549 NSCLC = tested on: A549 NSCLC
SK-MEL-5 melanoma = tested on: SK-MEL-5 melanoma
SF-295 CNS = tested on: SF-295 CNS
HOP-92 NSCLC = tested on: HOP-92 NSCLC
MDA-MB-231 breast = tested on: MDA-MB-231 breast
HCT-116 colon = tested on: HCT-116 colon
M14 melanoma = tested on: M14 melanoma
786-0 renal = tested on: 786-0 renal
RXF 393 renal = tested on: RXF 393 renal

O=C(c1ccc(Cl)cc1)c1ccc(OCCCN2CCN(c3ccncc3)CC2)cc1
GI50 (HL-60(TB) leukemia): 1460 nM
TGI (HL-60(TB) leukemia): 3.59 µM
GI50 (MDA-MB-435): 3.09 µM
TGI (MDA-MB-435): 11.5 µM
GI50 (SN12C renal): 10.9 µM
TGI (SN12C renal): 23.2 µM
GI50 (UACC-257 melanoma): 4.04 µM
TGI (UACC-257 melanoma): 15.7 µM
GI50 (K-562 leukemia): 1080 nM
TGI (K-562 leukemia): 4.8 µM
GI50 (MCF7 breast): 1890 nM
TGI (MCF7 breast): 5.16 µM
GI50 (SF-268 CNS): 11.6 µM
TGI (SF-268 CNS): 27.9 µM
GI50 (SK-MEL-28 melanoma): 1990 nM
TGI (SK-MEL-28 melanoma): 3.82 µM
GI50 (A498 renal): 16 µM
TGI (A498 renal): 30.2 µM
GI50 (MALME-3M melanoma): 1790 nM
TGI (MALME-3M melanoma): 3.41 µM
GI50 (KM12 colon): 4.57 µM
TGI (KM12 colon): 17 µM
GI50 (OVCAR-8 ovarian): 9.52 µM
TGI (OVCAR-8 ovarian): 46.1 µM
GI50 (BT-549 breast): 2860 nM
TGI (BT-549 breast): 9.3 µM
GI50 (IGROV1 ovarian): 6.59 µM
TGI (IGROV1 ovarian): 21 µM
GI50 (OVCAR-5 ovarian): 10.5 µM
TGI (OVCAR-5 ovarian): 22.9 µM
GI50 (ACHN renal): 8.94 µM
TGI (ACHN renal): 21.1 µM
GI50 (HOP-62 NSCLC): 5.07 µM
TGI (HOP-62 NSCLC): 18.3 µM
GI50 (UACC-62 melanoma): 1800 nM
TGI (UACC-62 melanoma): 3.63 µM
GI50 (NCI-H522 lung): 10.3 µM
TGI (NCI-H522 lung): 23.4 µM
GI50 (A549 NSCLC): 9.41 µM
TGI (A549 NSCLC): 23.7 µM
GI50 (SK-MEL-5 melanoma): 1730 nM
TGI (SK-MEL-5 melanoma): 4.18 µM
GI50 (SF-295 CNS): 2040 nM
TGI (SF-295 CNS): 4.82 µM
GI50 (HOP-92 NSCLC): 1540 nM
TGI (HOP-92 NSCLC): 11.2 µM
GI50 (MDA-MB-231 breast): 4.32 µM
TGI (MDA-MB-231 breast): 17.3 µM
GI50 (HCT-116 colon): 2170 nM
TGI (HCT-116 colon): 11.1 µM
GI50 (M14 melanoma): 1770 nM
TGI (M14 melanoma): 3.51 µM
GI50 (786-0 renal): 1690 nM
TGI (786-0 renal): 3.27 µM
GI50 (RXF 393 renal): 831 nM
TGI (RXF 393 renal): 6.4 µM
